Assay results as given in patent US6140317A, “Pyrrolopyrimidines and processes for their preparation” (Novartis AG, priority 1996, dated 2000).

Experiments:
[1] = target: T1, EGF-receptor-specific tyrosine protein kinase (EGF-R-PTK; EGF-R ICD) (Homo sapiens, UniProt P00533); assay: Inhibition of the EGF-receptor-specific tyrosine kinase (recombinant intracellular domain of the EGF receptor); type: biochemical
T1 construct: recombinant intracellular domain of the EGF receptor
Method: The compounds of formula I inhibit the enzyme activity in comparison with the control without inhibitor by 50% (IC50), for example in a concentration of from 0.001 to 20 μM, especially from 0.01 to 5 μM.
Inhibition of the EGF-receptor-specific Tyrosine Kinase
In accordance with the method mentioned above and using the recombinant intracellular domain of the EGF receptor (Europ. J. Biochem. 207, 265-275 (1992)), the following IC50 values are obtained: […]

BALB/MK cells = assay: Inhibition of the growth of BALB/MK (mouse keratinocyte) cells in vitro, methylene blue staining; type: cell-based; settings: 72 h, incubated for three days
Method: In a known test method (see Meyer et al., Int. J. Cancer 43, 851 (1989)) the inhibitory action of the compounds of formula I is determined briefly as follows: BALB/MK cells (10 000/microtiter plate well) are transferred to 96-well microtiter plates. The test compounds (dissolved in DMSO) are added in a series of concentrations (dilution series), so that the final concentration of DMSO is no greater than 1% (v/v). After the addition, the plates are incubated for three days, during which time the control cultures without test compound are able to undergo at least three cell division cycles. The growth of the MK cells is measured by means of methylene blue staining: after the incubation the cells are fixed with glutaraldehyde, washed with water and stained with 0.05% methylene blue. After a washing step, the stain is eluted with 3% HCl and the optical density per well of the microtitre plate is measured using a Titertek multiskan at 665 nm. IC50 values are determined by means of a computer-aided system using the formula
IC50 =[(ODtest -ODstart)/(ODcontrol
The IC50 value in those experiments is defined as that concentration of the test compound in question which results in a 50% decrease in the number of cells in comparison with the control without inhibitor.
The growth of BALB/MK cells in the presence of compounds of formula I is tested in accordance with the procedure described above. […]

v-abl kinase = v-abl kinase (Abelson murine leukemia virus, UniProt P00521); assay: Inhibition of the v-abl kinase ([Val5]-angiotensin II and [gamma-32P]-ATP as substrates); type: biochemical; settings: v-abl tyrosine kinase
v-abl kinase, sequence (P00521 whole entry): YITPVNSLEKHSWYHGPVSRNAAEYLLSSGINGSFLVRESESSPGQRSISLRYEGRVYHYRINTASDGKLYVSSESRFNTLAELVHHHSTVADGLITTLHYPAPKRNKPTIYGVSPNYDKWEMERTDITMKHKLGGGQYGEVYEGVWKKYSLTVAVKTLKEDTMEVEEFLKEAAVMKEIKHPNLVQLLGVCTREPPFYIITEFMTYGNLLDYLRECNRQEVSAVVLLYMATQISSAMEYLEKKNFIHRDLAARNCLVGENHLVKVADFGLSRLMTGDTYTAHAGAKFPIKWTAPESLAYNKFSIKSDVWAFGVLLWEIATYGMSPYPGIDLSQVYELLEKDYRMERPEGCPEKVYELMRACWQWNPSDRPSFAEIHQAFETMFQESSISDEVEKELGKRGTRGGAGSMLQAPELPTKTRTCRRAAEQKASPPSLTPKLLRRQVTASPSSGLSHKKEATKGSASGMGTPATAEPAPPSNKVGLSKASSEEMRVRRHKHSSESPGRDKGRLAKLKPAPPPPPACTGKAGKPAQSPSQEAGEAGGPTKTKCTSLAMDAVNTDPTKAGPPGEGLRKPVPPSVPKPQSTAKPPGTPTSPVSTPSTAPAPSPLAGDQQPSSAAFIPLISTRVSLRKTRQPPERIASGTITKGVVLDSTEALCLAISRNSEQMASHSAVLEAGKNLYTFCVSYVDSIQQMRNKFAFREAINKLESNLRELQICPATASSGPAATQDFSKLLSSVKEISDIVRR
Method: The above-mentioned inhibition of the v-abl tyrosine kinase is determined in accordance with the methods of N. Lydon et at, Oncogene Research 5, 161-173 (1990) and J. F. Geissler et al., Cancer Research 52, 4492-4498 (1992), with [Val^5 ]-angiotensin II and [γ -^32 P]-ATP being used as substrates.
In accordance with the procedure mentioned above (Oncogene Research 5, 161-173 (1990) and Cancer Research 52, 4492-4498 (1992), the following IC50 values are obtained: […]

T1 sequence (P00533 669-1210 limits assumed): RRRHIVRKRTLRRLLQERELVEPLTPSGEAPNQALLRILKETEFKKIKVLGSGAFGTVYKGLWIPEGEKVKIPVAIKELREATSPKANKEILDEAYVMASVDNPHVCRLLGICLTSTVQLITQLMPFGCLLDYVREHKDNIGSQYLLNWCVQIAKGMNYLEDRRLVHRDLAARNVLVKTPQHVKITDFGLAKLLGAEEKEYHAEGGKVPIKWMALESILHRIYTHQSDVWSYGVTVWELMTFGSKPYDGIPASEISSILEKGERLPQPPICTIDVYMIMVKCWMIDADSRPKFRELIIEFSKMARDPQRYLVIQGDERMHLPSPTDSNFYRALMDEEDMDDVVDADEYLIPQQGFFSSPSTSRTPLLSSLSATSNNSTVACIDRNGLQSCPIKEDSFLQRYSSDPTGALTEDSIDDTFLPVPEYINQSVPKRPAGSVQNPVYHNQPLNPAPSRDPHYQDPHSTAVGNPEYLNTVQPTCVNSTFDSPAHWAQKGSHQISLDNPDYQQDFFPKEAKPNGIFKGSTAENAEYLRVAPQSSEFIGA

| SMILES | IC50 [1] [nM] | IC50 (BALB/MK cells) [nM] | IC50 (v-abl kinase) [nM] |
| --- | --- | --- | --- |
| Cc1[nH]c2ncnc(N3CCc4ccccc43)c2c1C [Example 1, 4-(2,3-Dihydroindol-1-yl)-5,6-dimethyl-7H-pyrrolo[2,3-d]pyrimidine] | 1560 | – | – |
| Cc1[nH]c2ncnc(N3CCCc4ccccc43)c2c1C [Example 5, 4-(1,2,3,4-Tetrahydroquinolin-1-yl)-5,6-dimethyl-7H-pyrrolo[2,3-d]pyrimidine] | 2690 | – | – |
| Nc1ccc(-c2cc3c(N4CCc5ccccc54)ncnc3[nH]2)cc1 [Example 7, 4-(2,3-Dihydroindol-1-yl)-6-(4-amino-phenyl)-7H-pyrrolo[2,3-d]pyrimidine] | 210 | 15800 | 78 |
| Nc1ccc(-c2cc3c(N4CCCc5ccccc54)ncnc3[nH]2)cc1 [Example 11, 4-(1,2,3,4-Tetrahydroquinolin-1-yl)-6-(4amino-phenyl)-7H-pyrrolo[2.3-d]-pyrimidine] | 26 | 760 | 2 |
